Laboratory results reported in paper PMC2705520, “Inactivation and Unfolding of the Hyperthermophilic Inorganic Pyrophosphatase from Thermus thermophilus by Sodium Dodecyl Sulfate” (2009).
Structures can show the parent of a compound that is named as a salt.

T1: Inorganic pyrophosphatase (T-PPase) (Thermus thermophilus, UniProt Q72H95)
T1 construct: gene ppa
T1 sequence (Q72H95 1-175): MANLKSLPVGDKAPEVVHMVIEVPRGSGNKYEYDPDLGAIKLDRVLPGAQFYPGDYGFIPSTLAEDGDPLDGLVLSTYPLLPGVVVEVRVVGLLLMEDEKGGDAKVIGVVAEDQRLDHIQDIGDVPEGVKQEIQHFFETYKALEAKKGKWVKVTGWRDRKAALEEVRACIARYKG

B1: Inorganic pyrophosphatase (T-PPase) (Thermus thermophilus HB27) (protein)
chain: MANLKSLPVGDKAPEVVHMVIEVPRGSGNKYEYDPDLGAIKLDRVLPGAQFYPGDYGFIPSTLAEDGDPLDGLVLSTYPLLPGVVVEVRVVGLLLMEDEKGGDAKVIGVVAEDQRLDHIQDIGDVPEGVKQEIQHFFETYKALEAKKGKWVKVTGWRDRKAALEEVRACIARYKG

Tests used:
[1] = biological target: T1, Inorganic pyrophosphatase (T-PPase); test: PPase activity assay (phosphomolybdate); Lineweaver-Burk and secondary replots, mixed type reversible inhibition; assay type: biochemical
Excerpt: PPase activity assay (phosphomolybdate); Lineweaver-Burk and secondary replots, mixed type reversible inhibition on Inorganic pyrophosphatase (T-PPase) | Then the apparent inhibition constant could be calculated from Equations.

[2] = substrate: O=P(O)(O)OP(=O)(O)O; test: purified protein; details: Mg2+ active site cavity formed by conserved polar residues, with Mg2+ ions

Molecule | Ki [1] [mM] | Km [2] [µM]
CCCCCCCCCCCCOS(=O)(=O)O [Sodium dodecyl sulfate] | 3.4 | 
B1 |  | 420 ± 40
